Reference: patent publication US20120202822A1, “COMBINATION” (priority 2009, published 2012)
Values belong to the compound of their own block, whether it stands above or below them.

Experiments:
Experiment in all cases: Fixed Ratio Drug Combination Assay, cell proliferation (CellTiter Glo)
Assay type in all cases: cell-based, human
[1] = test system: RKO; details: 72 hours; for IC50: Homo sapiens, read-out: gIC50
Method: (§1) Combination drug tests with Compounds A and B were conducted using a panel of cell lines from human colon cancers (n=25) (Table 1). Cell lines were purchased commercially [from ATCC (Manassas, Va., USA) or DSMZ (Braunschweig, Germany)] and grown in RPMI-1640 supplemented with 2 mM glutamine, 1 mM sodium pyruvate and 10% fetal bovine serum and maintained at 37° C. and 5% CO2 in a humid incubator.
(§2) The dilution design of the Fixed Ratio Drug Combination Assay can be seen in FIG. 1. First, the test compounds were prepared as 10 mM stocks in 100% dimethyl sulfoxide (DMSO). Further dilutions of the compounds were made with DMSO. The first test compound (designated as Compound A) is diluted horizontally in a 96 well microtiter plate in rows B-E using a 3-fold dilution series for 10 dilution points. A second test compound (designated as Compound B) is diluted horizontally in a separate 96 well microtiter plate in rows D-G using a 3-fold dilution series for 10 dilution points. The two compounds are combined using equal volumes from each drug plate into cell culture media. […] Compound A is individually titrated in rows B and C, while only Compound B is dosed in rows F and G of the plate. An additional 1:10 dilution of the drugs is performed in cell culture media prior to addition to the cells. Drug addition to the cells results in a further 1:2 dilution of drugs. The total dilution of the drug plate to the cells is […]. The final dosing concentration range for Compound B was 0.1-1000.0 nM and was 0.5-10000.0 nM for Compound A. The positive control consists of culture media with DMSO at 0.1% and cells and no drug. The negative control consists of culture media with DMSO at 0.1%. solution.
(§3) Assays were performed in 96 well microtiter plates with appropriate seeding densities estimated from previous studies of each cell line. Following dosing, the cell lines are incubated at 37° C., 5% CO2 in humid air for 72 hours. Cell proliferation was measured using the CellTiter Glo (Promega Corporation, Madison, Wis., USA) reagent according to the manufacturer's protocol. The plates are treated with CellTiter Glo solution and are analyzed for RLU (relative light units) using a Molecular Devices SpectraMax M5 (Sunnyvale, Calif., USA) plate reader.
(§4) Results are expressed as a percentage of the number of cells present at the time of compound addition value (T0) and plotted against compound(s) concentration. The percent intensity values were used in model 205 of the IDBS XLfit plug-in for Microsoft Excel to calculate gIC50 values using a 4 parameter logistical fit. Background correction is made by subtraction of values from wells containing no cells. The midpoint of the growth window (the gIC50) falls half way between the number of cells at the time of compound addition and the growth of control cells treated with DMSO at 72 hrs. The number of cells at time zero is divided from the intensity value at the bottom of the response curve (Ymin) to generate a measure for cell death (Ymin/T0). A value below 1 for Ymin/T0 indicates stronger potency with the treatment when compared to higher values. For duplicate assays, all response metrics are averaged for presentation.
(§5) Three independent metrics were used to analyze the combinatorial effects on growth inhibition of Compound B and Compound A. • 1. Excess over Highest Single Agent (EOHSA)—One standard criterion for measuring drug combinatorial effects is analyzing the effects on cell growth inhibition in absolute terms. In this case, the combination of drugs is compared to the more responsive of the two individual treatments (single agent). For each combination experiment, the percent effect relative to the highest single agent for each dose along the curve is generated. This measure of “Excess of Highest Single Agent (EOHSA)” is one of the criteria used for evaluating synergy of drug combinations. […]

[2] = test system: NCIH747; details: for Ymin/T0: 72 hours; for IC50: Homo sapiens, NCI-H747, 72 hours, read-out: gIC50
Method: as §1, §2, §3, §4, §5

[3] = test system: HCT15; details: for Ymin/T0: 72 hours; for IC50: Homo sapiens, HCT-15, 72 hours, read-out: gIC50
Method: as §1, §2, §3, §4, §5

IC50 [3]: > 10000 nM
Compound: CC(C)(C)c1nc(-c2cccc(NS(=O)(=O)c3c(F)cccc3F)c2F)c(-c2ccnc(N)n2)s1 [Compound A, N-{3-[5-(2-amino-4-pyrimidinyl)-2-(1,1-dimethylethyl)-1,3-thiazol-4-yl]-2-fluorophenyl}-2,6-difluorobenzenesulfonamide]
Ymin/T0 [1]: 6.7 | IC50 [1]: 8950 nM | Ymin/T0 [2]: 1.3 | IC50 [2]: > 10000 nM | Ymin/T0 [3]: 6.1

IC50 [3]: 7.2 nM
Compound: COc1ncc(-c2ccc3nccc(-c4ccnnc4)c3c2)cc1NS(=O)(=O)c1ccc(F)cc1F [Compound B, 2,4-difluoro-N-{2-(methyloxy)-5-[4-(4-pyridazinyl)-6-quinolinyl]-3-pyridinyl}benzenesulfonamide]
Ymin/T0 [1]: 3.0 | IC50 [1]: 10.9 nM | Ymin/T0 [2]: 0.5 | IC50 [2]: 2.7 nM | Ymin/T0 [3]: 2.4
